pIC50: −log10 of the molar value. Read-outs that look alike come from different tables or passages of the source.
What was measured:
[1] = tested on: KB cells (human nasopharyngeal carcinoma-derived); test: MTT cell proliferation inhibition assay, KB cells; assay type: cell-based; details: for pIC50: MTT assay, cultured 3 days, probit analysis, read-out: Inhibitory concentration against tumor cell lines in vitro IC50, KB; for cell proliferation inhibitory activity compared with 5-FU, KB cells: comparison of IC50 with control drug 5-FU
Protocol: (§1) Regarding the synthesized triazolopyrimidine compounds, their cell proliferation inhibitory activities, as an index of antitumor acttivity, were examined. The test was performed by MTT assay (T. Mosmann, J. Immunol. Methods, 65, 55 (1983); M. B. Hansen, S. E. Nielsen and K. Berg, J. Immunol. Methods, 119, 203 (1989), which are incorporated by reference in their entirety.), and the cancer cells tested were CCRF-HSB-2 cells (human acute lymphoblastic leukemia) and KB cells (human […]). Cytarabine (Ara-C, cytarabine: 4-amino-1-β-D-arabinofuranosyl-2(1H)-one) and 5-fluorouracil (5-FU, 5-fluorouracil) were used as control drugs, which are antimetabolite anticancer agents used for, for example, acute leukemia and/or gastrointestinal cancer.
(§2) Human acute lymphoblastic leukemia cells (T-cells) CCRF-HSB-2 and human nasopharyngeal carcinoma-derived KB cells were cultured in RPMI 1640 medium supplemented with 10% fetal bovine serum.
(§3) Test agents were dissolved in dimethyl sulfoxide to become a concentration of 10 mg/ml and stored at 4° C. These solutions were diluted with MEM-Hanks medium and used for the assay.
(§4) • 1. 50 μl of the agent solution or MEM-Hanks medium was pre-filled in a 96-well plate. • 2. Cells in the logarithmic growth phase were harvested, and suspension of the cells was prepared such that the cell density is 1×10^5 cells/ml (5,000 cells/50 μl/well) and the serum concentration is 20%. The suspension 50 μl was seeded to each well. The cells were cultured in a carbon dioxide incubator at 37° C. for 3 days. • 3. After completion of the culture, 10 μl of MTT solution*(5 mg/ml in PBS-) was added to each well, and the cells were further cultured at 37° C. for 4 hours in a carbon dioxide incubator. *MTT solution: 1 g of MTT (Sigma M-2128) was dissolved in 200 ml of PBS-under light shielding, and the solution was filtrated using a 0.45 μm filter, and then stored at 4° C. If insoluble components precipitated during storage, filtration was performed again. • 4. After completion of the culture, 100 μl of 0.02 N HCl/50% N,N-dimethylformamide/20% SDS was added and stirred in each well to dissolve produced formazan. Its absorbance at 570 nm (test wavelength) and 690 nm (reference wavelength) was measured by a microplate reader (Tosoh MPR4Ai) and the proliferation inhibition rate was determined by the following formula. Inhibition rate (%)=(1−Tx/Cx)×100
(§5) Tx: Absorbance of wells containing sample
(§6) Cx: Absorbance of wells containing no sample (control) • 5. Inhibitory concentration showing 50% inhibition (IC50) of samples were determined by probit analysis using a computer software. [Evaluation]

[2] = tested on: CCRF-HSB-2 cells (human acute lymphoblastic leukemia); test: MTT cell proliferation inhibition assay, CCRF-HSB-2 cells; assay type: cell-based; details: for pIC50: MTT assay, cultured 3 days, probit analysis, read-out: Inhibitory concentration against tumor cell lines in vitro IC50, CCRF-HSB-2; for cell proliferation inhibitory activity compared with 5-FU, CCRF-HSB-2 cells: comparison of IC50 with control drug 5-FU
Protocol: as §1, §2, §3, §4, §5, §6

Row | SMILES | pIC50 [1] | pIC50 [2] | also measured
1 | Nc1ccn([C@@H]2O[C@H](CO)[C@@H](O)[C@@H]2O)c(=O)n1 [AraC, 4-amino-1-β-D-arabinofuranosyl-2(1H)-one, reference compound] | – | – | pIC50 ([1]; Homo sapiens, 72 h): 6.92; pIC50 ([2]; Homo sapiens, 72 h): 7.68
2 | Cc1c[nH]c(=O)nc1NN=Cc1ccccc1 [Compound 3b] | < 4.00 | < 4.00 | –
3 | CCc1nnc2c(C)c[nH]c(=O)n12 [Compound 4a] | 4.09 | 4.11 | –
4 | Cc1c[nH]c(=O)n2c(-c3ccccc3)nnc12 [Compound 4b] | < 4.00 | < 4.00 | –
5 | O=c1[nH]cc(F)c(=O)[nH]1 [Compound 5-FU, 5-fluorouracil, reference compound] | – | – | pIC50 ([1]; Homo sapiens, 72 h): 5.65; pIC50 ([2]; Homo sapiens, 72 h): 5.56
6 | Cc1c[nH]c(=O)n2nc(-c3ccccc3)nc12 [Compound 5b] | 4.24 | 4.31 | –
7 | Cc1ccc(-c2nc3c(C)c[nH]c(=O)n3n2)cc1 [Compound 5c] | 4.37 | 4.20 | –
8 | COc1ccc(-c2nc3c(C)c[nH]c(=O)n3n2)cc1 [Compound 5d] | < 4.00 | < 4.00 | –
9 | COc1cc(OC)c(-c2nc3c(C)c[nH]c(=O)n3n2)c(OC)c1 [Compound 5e] | < 4.00 | < 4.00 | –
10 | Cc1c[nH]c(=O)n2nc(-c3ccc([N+](=O)[O-])cc3)nc12 [Compound 5f] | 5.73 | 4.15 | cell proliferation inhibitory activity compared with 5-FU, KB cells [1]: stronger cell proliferation inhibitory activity than 5-FU
11 | Cc1c[nH]c(=O)n2nc(-c3ccccc3F)nc12 [Compound 5g] | 4.20 | 4.31 | –
12 | Cc1c[nH]c(=O)n2nc(-c3ccc(F)cc3)nc12 [Compound 5h] | 4.20 | 4.26 | –
13 | Cc1c[nH]c(=O)n2nc(-c3ccc(Cl)cc3)nc12 [Compound 5i] | 4.30 | 4.38 | –
14 | Cc1c[nH]c(=O)n2nc(-c3ccc(Cl)c(Cl)c3)nc12 [Compound 5j] | 4.87 | 4.82 | –
15 | Cc1c[nH]c(=O)n2nc(-c3ccccc3Br)nc12 [Compound 5k] | 4.03 | 4.13 | –
16 | Cc1c[nH]c(=O)n2nc(-c3ccc(C#N)cc3)nc12 [Compound 5m] | 4.63 | < 4.00 | –
17 | Cc1c[nH]c(=O)n2nc(-c3ccc(C(=O)O)cc3)nc12 [Compound 5n] | < 4.00 | < 4.00 | –
18 | Cc1c[nH]c(=O)n2nc(-c3cccnc3)nc12 [Compound 5p] | 4.11 | 4.23 | –
19 | Cc1c[nH]c(=O)n2nc(-c3ccncc3)nc12 [Compound 5q] | 4.38 | 4.54 | –
20 | Cc1c[nH]c(=O)n2nc(-c3ccc4ccccc4c3)nc12 [Compound 5r] | < 4.00 | 4.00 | –
21 | Cc1cnc(Cl)n2nc(-c3ccccc3)nc12 [Compound 6b] | – | – | cell proliferation inhibitory activity compared with 5-FU, CCRF-HSB-2 cells [2]: stronger cell proliferation inhibitory activity than 5-FU
22 | Cc1cnc(Cl)n2nc(-c3ccc([N+](=O)[O-])cc3)nc12 [Compound 6f] | – | – | cell proliferation inhibitory activity compared with 5-FU, KB cells [1]: stronger cell proliferation inhibitory activity than 5-FU; cell proliferation inhibitory activity compared with 5-FU, CCRF-HSB-2 cells [2]: stronger cell proliferation inhibitory activity than 5-FU
23 | Cc1cnc(Cl)n2nc(-c3ccc(Cl)c(Cl)c3)nc12 [Compound 6j] | – | – | cell proliferation inhibitory activity compared with 5-FU, CCRF-HSB-2 cells [2]: stronger cell proliferation inhibitory activity than 5-FU
24 | Cc1cnc(Cl)n2nc(-c3ccc(C#N)cc3)nc12 [Compound 6m] | – | – | cell proliferation inhibitory activity compared with 5-FU, CCRF-HSB-2 cells [2]: stronger cell proliferation inhibitory activity than 5-FU
25 | CCc1nc2c(F)c[nH]c(=O)n2n1 [Compound 9c] | 4.31 | 4.24 | –
26 | O=c1[nH]cc(F)c2nc(-c3ccccc3)nn12 [Compound 9d] | 4.41 | 4.65 | –
27 | O=c1[nH]cc(F)c2nc(-c3ccc(Cl)c(Cl)c3)nn12 [Compound 9e] | 4.54 | 4.63 | –
28 | O=c1[nH]cc(F)c2nc(-c3ccc(Br)cc3)nn12 [Compound 9f] | 4.55 | 4.50 | –
29 | N#Cc1ccc(-c2nc3c(F)c[nH]c(=O)n3n2)cc1 [Compound 9g] | 4.36 | 4.38 | –

— US12351583B2, “Triazolopyrimidines based on thymine nucleobase and methods for producing them” (TERA STONE CO., LTD, priority 2019, dated 2025)
